Assay results as given in ChEMBL document CHEMBL1201862, “PubChem BioAssay data set” (2004).
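Grown in 96-well plates, cells were treated for 48 hours with each compound at five concentrations. Insufficient inhibition: endpoint recorded as highest concentration tested. GI50: concentration for 50% inhibition of growth.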 Activity calls are given as the source filed them. Cut-off read from the data, not from the text of the source: active = GI50 up to about 1.1 µM and inactive = higher.

Columns and labels:
Experiment in all cases: NCI anticancer screen, dose series, 48 h
NCI/ADR-RES = test system: NCI/ADR-RES
MDA-N = test system: MDA-N
MDA-MB-231 = test system: MDA-MB-231

With `Cn1c2ccccc2n2c(=O)c3cc([N+](=O)[O-])ccc3c(C#N)c12` the GI50 (NCI/ADR-RES) was > 100 µM (inactive) and the GI50 (MDA-N) was > 100 µM (inactive).
`C=C1CC(Cn2cc(C)c(=O)[nH]c2=O)(c2ccc(-c3ccccc3)cc2)OC1=O` (stereo not given) was tested, and the GI50 (NCI/ADR-RES) was 1.33 µM (inactive), the GI50 (MDA-MB-231) was 2.22 µM (inactive) and the GI50 (MDA-N) was 1.33 µM (inactive).
In the case of `C[O+]=C1C=CC(=C2SC(c3ccccc3)(c3ccccc3)c3ccccc32)C=C1.[O-][Cl+3]([O-])([O-])[O-]`, the GI50 (NCI/ADR-RES) is reported as 30.1 µM (inactive), the GI50 (MDA-MB-231) is reported as 18.5 µM (inactive) and the GI50 (MDA-N) is reported as 21.1 µM (inactive).
In the case of `COc1ccc2c(c1)C(=O)CC1c3cnccc3C(=O)N21` (stereo not given), the GI50 (NCI/ADR-RES) is reported as > 100 µM (inactive), the GI50 (MDA-MB-231) is reported as > 100 µM (inactive) and the GI50 (MDA-N) is reported as > 100 µM (inactive).
With `O=C(OCc1ccccc1)C(Cc1ccc(OCc2ccccc2)cn1)NC(=O)C(F)(F)F` (stereo not given) the GI50 (NCI/ADR-RES) was > 100 µM (inactive), the GI50 (MDA-MB-231) was > 100 µM (inactive) and the GI50 (MDA-N) was > 100 µM (inactive).
For `c1csc(-c2ccsc2-c2ccsc2)c1`, the GI50 (NCI/ADR-RES) was 76 µM (inactive), the GI50 (MDA-MB-231) was > 100 µM (inactive) and the GI50 (MDA-N) was 73.1 µM (inactive).
`CN1CCOC1(C)CO` (stereo not given) was tested, and the GI50 (NCI/ADR-RES) was > 100 µM (inactive), the GI50 (MDA-MB-231) was > 100 µM (inactive) and the GI50 (MDA-N) was > 100 µM (inactive).
With `CCOC(=O)CC[C@H](NC(=O)N[C@H](C)c1ccccc1)C(=O)OCC` the GI50 (NCI/ADR-RES) was 22.8 µM (inactive), the GI50 (MDA-MB-231) was 28.6 µM (inactive) and the GI50 (MDA-N) was 18.6 µM (inactive).
For `CCOC(=O)O/C(=C\c1ccc(OC)cc1)c1c(OC(=O)OCC)n(C(=O)OCC)c2ccccc12`, the GI50 (NCI/ADR-RES) was 43.9 µM (inactive), the GI50 (MDA-MB-231) was 18.5 µM (inactive) and the GI50 (MDA-N) was 19.3 µM (inactive).
`CO[C@H]1C=CO[C@@]2(C)Oc3c(C)c(O)c4c(O)c(c(CN5CCN(C)CC5)c(O)c4c3C2=O)NC(=O)/C(C)=C\C=C[C@H](C)[C@H](O)C(C)[C@@H](O)C(C)[C@H](OC(C)=O)[C@@H]1C` (stereo not given in full) was tested, and the GI50 (NCI/ADR-RES) was > 100 µM (inactive), the GI50 (MDA-MB-231) was 34.4 µM (inactive) and the GI50 (MDA-N) was 44.3 µM (inactive).
In the case of `O=C1CC(CC(O)[C@@H]2CCCC[C@@H]2O)CC(=O)N1c1ccccc1` (stereo not given in full), the GI50 (NCI/ADR-RES) is reported as > 100 µM (inactive), the GI50 (MDA-MB-231) is reported as > 100 µM (inactive) and the GI50 (MDA-N) is reported as > 100 µM (inactive).
`Cc1cc(O)cc(O)c1/N=N/c1ccc([N+](=O)[O-])cc1` was tested, and the GI50 (NCI/ADR-RES) was 10.6 µM (inactive), the GI50 (MDA-MB-231) was 14.8 µM (inactive) and the GI50 (MDA-N) was 15.6 µM (inactive).
For `CCOCC(=O)N[C@H]1CCc2cc(OC(=O)COCC)c(OC)c(OC)c2-c2ccc(SC)c(=O)cc21`, the GI50 (NCI/ADR-RES) was 1.87 µM (inactive), the GI50 (MDA-MB-231) was 0.0274 µM (active) and the GI50 (MDA-N) was 0.0022 µM (active).
`NCCC1([N+](=O)[O-])C=CN=CC1` (stereo not given) was tested, and the GI50 (NCI/ADR-RES) was > 100 µM (inactive), the GI50 (MDA-MB-231) was > 100 µM (inactive) and the GI50 (MDA-N) was > 100 µM (inactive).
With `O=C1c2ccccc2-c2nnc(-c3ccc(Cl)cc3)cc21` the GI50 (NCI/ADR-RES) was > 10 µM (inactive), the GI50 (MDA-MB-231) was > 10 µM (inactive) and the GI50 (MDA-N) was > 10 µM (inactive).
In the case of `C#CCNC(CS)C(=O)O` (stereo not given), the GI50 (NCI/ADR-RES) is reported as > 100 µM (inactive) and the GI50 (MDA-MB-231) is reported as > 100 µM (inactive).
With `CCC1CN(C(=O)c2ccccc2)C(Cc2c[nH]c3ccccc23)C(=O)C1CC(=O)OC` (stereo not given) the GI50 (NCI/ADR-RES) was 86.7 µM (inactive).
With `Cc1cccc(-c2cc(=S)c3cc(N4CCCC4)ccc3[nH]2)c1` the GI50 (NCI/ADR-RES) was > 100 µM (inactive), the GI50 (MDA-MB-231) was > 100 µM (inactive) and the GI50 (MDA-N) was > 100 µM (inactive).
With `Cn1c2c3ccc(Cl)cc3nc-2c(Cl)c2ccccc21` the GI50 (NCI/ADR-RES) was 24.8 µM (inactive), the GI50 (MDA-MB-231) was 23.7 µM (inactive) and the GI50 (MDA-N) was 20.2 µM (inactive).
For `COc1cc2c3c(cc(Cl)nc3c1OC)C(=O)C(=O)N2`, the GI50 (NCI/ADR-RES) was 22.5 µM (inactive) and the GI50 (MDA-MB-231) was 1.94 µM (inactive).
For `O=C1/C(=C/c2cccc([N+](=O)[O-])c2)N=C(c2ccccc2)N1c1nc2ccc(Sc3ccccc3)cc2[nH]1`, the GI50 (NCI/ADR-RES) was 29.3 µM (inactive), the GI50 (MDA-MB-231) was 93.1 µM (inactive) and the GI50 (MDA-N) was 14.9 µM (inactive).
With `O=C1CS(=O)(=O)C(c2cccc(Oc3ccccc3)c2)N1c1ccccc1` (stereo not given) the GI50 (NCI/ADR-RES) was 22 µM (inactive), the GI50 (MDA-MB-231) was 19.9 µM (inactive) and the GI50 (MDA-N) was 17.9 µM (inactive).
`O=C1/C(=C\c2ccccc2)c2ccccc2N1Cc1ccccc1` was tested, and the GI50 (NCI/ADR-RES) was 10.6 µM (inactive), the GI50 (MDA-MB-231) was 6.89 µM (inactive) and the GI50 (MDA-N) was 5.18 µM (inactive).
With `Cn1c2ccccc2n2c(=O)c(-c3ccc(O)cc3)nnc12` the GI50 (NCI/ADR-RES) was > 100 µM (inactive) and the GI50 (MDA-MB-231) was 31.2 µM (inactive).
For `CCCC1CCC(=C2C(=O)CCC2=O)O1` (stereo not given), the GI50 (NCI/ADR-RES) was > 100 µM (inactive), the GI50 (MDA-MB-231) was > 100 µM (inactive) and the GI50 (MDA-N) was > 100 µM (inactive).
`[N-]=[N+]=NC[C@H]1OCO[C@H](CN=[N+]=[N-])[C@H]2OCCOCCOc3ccccc3OCCOCCO[C@@H]21` was tested, and the GI50 (NCI/ADR-RES) was > 100 µM (inactive), the GI50 (MDA-MB-231) was > 100 µM (inactive) and the GI50 (MDA-N) was > 100 µM (inactive).
With `CN(CCNC(=O)c1c[nH]c2c1Cc1ccccc1-2)CCNC(=O)c1c[nH]c2c1Cc1ccccc1-2` the GI50 (NCI/ADR-RES) was 29.4 µM (inactive), the GI50 (MDA-MB-231) was 28.6 µM (inactive) and the GI50 (MDA-N) was 15.2 µM (inactive).
For `Cc1nn(C(=O)Cc2ccccc2)c2c1C(c1ccc3ccccc3c1O)SC(=N)N2` (stereo not given), the GI50 (MDA-MB-231) was > 100 µM (inactive) and the GI50 (MDA-N) was > 100 µM (inactive).
`CC(NNC(=O)c1cc[n+]([BH2-]C#N)cc1)c1cccc(F)c1` (stereo not given) was tested, and the GI50 (NCI/ADR-RES) was > 100 µM (inactive), the GI50 (MDA-MB-231) was > 100 µM (inactive) and the GI50 (MDA-N) was > 100 µM (inactive).
For `Cc1cc(N(CCC#N)CCC#N)ccc1/C=C1\SC(=S)NC1=O`, the GI50 (NCI/ADR-RES) was > 100 µM (inactive), the GI50 (MDA-MB-231) was > 100 µM (inactive) and the GI50 (MDA-N) was > 100 µM (inactive).
For `COc1ccccc1CNCc1nc2ccccc2[nH]1`, the GI50 (NCI/ADR-RES) was > 100 µM (inactive), the GI50 (MDA-MB-231) was > 100 µM (inactive) and the GI50 (MDA-N) was > 100 µM (inactive).
For `O=P(O)(Cc1ccccc1)c1ccccc1-c1ccccc1`, the GI50 (NCI/ADR-RES) was > 100 µM (inactive), the GI50 (MDA-MB-231) was > 100 µM (inactive) and the GI50 (MDA-N) was > 100 µM (inactive).
In the case of `C/C=C1/CN2CC[C@@H]3c4ccccc4N4[C@H](C(=O)OC)[C@H]1C[C@H]2[C@]34/C=C/C1=COC[C@@H]2[C@H]1C[C@H]1c3c(c4ccccc4n3C)C[C@@H]2N1C`, the GI50 (NCI/ADR-RES) is reported as 3.46 µM (inactive), the GI50 (MDA-MB-231) is reported as 4.02 µM (inactive) and the GI50 (MDA-N) is reported as 2.32 µM (inactive).
In the case of `Cc1ccc(S(=O)(=O)N(CCN)c2cc3c4c(c2)Oc2cccc5c2C4c2c(cccc2O3)O5)cc1`, the GI50 (NCI/ADR-RES) is reported as 10.7 µM (inactive), the GI50 (MDA-MB-231) is reported as 17.9 µM (inactive) and the GI50 (MDA-N) is reported as 23.8 µM (inactive).
With `Cc1nc2nnc(CCCCCCCCc3nnc4nc(C)[nH]n34)n2[nH]1` the GI50 (NCI/ADR-RES) was > 100 µM (inactive), the GI50 (MDA-MB-231) was > 100 µM (inactive) and the GI50 (MDA-N) was > 100 µM (inactive).
With `COc1ccc(OC)c(C2CCc3nc4nc(N)nc(N)c4cc3C2)c1` (stereo not given) the GI50 (NCI/ADR-RES) was > 100 µM (inactive), the GI50 (MDA-MB-231) was 2.35 µM (inactive) and the GI50 (MDA-N) was 2.13 µM (inactive).
In the case of `CCOC(=O)C1=C(O)C2C3CC4C2C(O)=C(C(=O)OCC)C2C1C3C42` (stereo not given), the GI50 (NCI/ADR-RES) is reported as 18.7 µM (inactive), the GI50 (MDA-MB-231) is reported as > 100 µM (inactive) and the GI50 (MDA-N) is reported as > 100 µM (inactive).
In the case of `CC1CCCCNC1=S` (stereo not given), the GI50 (MDA-MB-231) is reported as > 10 µM (inactive) and the GI50 (MDA-N) is reported as > 10 µM (inactive).
With `CN(CCCCCl)P(=O)(OCc1ccc([N+](=O)[O-])o1)OC[C@H]1O[C@@H](n2cc(F)c(=O)[nH]c2=O)C[C@@H]1O` (stereo not given in full) the GI50 (NCI/ADR-RES) was 0.0658 µM (active), the GI50 (MDA-MB-231) was 12.9 µM (inactive) and the GI50 (MDA-N) was 7.03 µM (inactive).
With `Oc1ccc2ccccc2c1Cc1c(O)ccc2ccccc12` the GI50 (NCI/ADR-RES) was 15.2 µM (inactive), the GI50 (MDA-MB-231) was 18.2 µM (inactive) and the GI50 (MDA-N) was 11.6 µM (inactive).
For `Cc1nc(C)c(C(=O)NNC(=O)c2ccccc2)cc1C(=O)NNC(=O)c1ccccc1`, the GI50 (NCI/ADR-RES) was > 100 µM (inactive), the GI50 (MDA-MB-231) was > 100 µM (inactive) and the GI50 (MDA-N) was > 100 µM (inactive).
`NC(CCCCNC(=O)C(Cc1ccccc1)NC(=O)OCc1ccccc1)C(=O)NC(CCCCNC(=O)C(Cc1ccccc1)NC(=O)OCc1ccccc1)C(=O)NC(CCCCNC(=O)C(Cc1ccccc1)NC(=O)OCc1ccccc1)C(=O)NC(CCCCNC(=O)C(Cc1ccccc1)NC(=O)OCc1ccccc1)C(=O)NC(CCCCNC(=O)C(Cc1ccccc1)NC(=O)OCc1ccccc1)C(=O)NC(CCCCNC(=O)C(Cc1ccccc1)NC(=O)OCc1ccccc1)C(=O)O` (stereo not given) was tested, and the GI50 (MDA-MB-231) was > 100 µM (inactive) and the GI50 (MDA-N) was > 100 µM (inactive).
`C=C(Br)CN(C#N)CC(=C)Br` was tested, and the GI50 (NCI/ADR-RES) was > 100 µM (inactive), the GI50 (MDA-MB-231) was > 100 µM (inactive) and the GI50 (MDA-N) was > 100 µM (inactive).
